Reference: patent US20130230543A1, “ENGINEERED POLYPEPTIDE CONJUGATES AND METHODS FOR MAKING THEREOF USING […]” (priority 2010, published 2013)
Read-outs that look alike come from different tables or passages of the source.

Key:
Format in all cases: cell-based
[1] = system: BxPC3 cells; assay: In vitro cytotoxicity assay, CellTiter-Glo, 96 hours after treatment (mAb2 conjugates and free compounds); settings: BxPC3, target expressing, column also holds free compounds, read-out: BxPC3 Antibody IC50
Procedure: (§1) In vitro cytotoxicity assays were carried out using various antibodies, payloads (i.e., agent moieties), and amine donor units. For mAb2 (a chimeric IgG1 antibody), target expressing (A431, OVCAR3, BxPC3 and HT-29) or non-expressing (SW620) cells were seeded on white walled clear bottom plates at 2000 cells/well for 24 hours before treatment. […] Cell viability was determined by CellTiter-Glo® Luminescent Cell Viability Assay 96 (Promega, Madison Wis.) 96 hours after treatment. […] IC50 was calculated by Prism software.

[2] = system: SW620 cells; assay: In vitro cytotoxicity assay, CellTiter-Glo, 96 hours after treatment, target non-expressing cells; settings: read-out: SW620 Antibody IC50
Procedure: as §1

[3] = system: A431 cells; assay: In vitro cytotoxicity assay, CellTiter-Glo, 96 hours after treatment (mAb2 conjugates and free compounds); settings: Homo sapiens, A-431, 96 h, read-out: A431 Antibody IC50 (nM)
Procedure: as §1

[4] = system: HT-29 cells; assay: as above; settings: Homo sapiens, HT-29, target expressing, column also holds free compounds, read-out: HT-29 Antibody IC50
Procedure: as §1

VC-PABC-MMAF [Sample 24]
IC50 [1]: 427 nM
IC50 ([2]; values only for free compounds): 483 nM

CO[C@H]1/C=C\C=C(/C)C(=O)NC2=CC(=O)C(NCCCCNC(=O)[C@H](CCCCN)NC(C)=O)=C(C[C@@H](C)C[C@H](OC)[C@H](O)[C@@H](C)/C=C(\C)[C@@H]1OC(N)=O)C2=O [Sample 26, AcLys-Putrescinyl-Geldanamycin]
IC50 [3]: > 1000 nM
IC50 ([2]; Homo sapiens, SW-620, values only for free compounds): > 1000 nM

CC[C@H](C)[C@@H](C(CC(=O)N1CCCC1C(OC)[C@@H](C)C(=O)NC(Cc1ccccc1)c1nccs1)OC)N(C)C(=O)C(NC(=O)[C@H](C(C)C)N(C)C(=O)CNC(=O)C(C)CCCCN)C(C)C (stereo partly drawn) [Sample 29, AcLysGly-MMAD]
IC50 [3]: 8.42 nM
IC50 [4]: 5.14 nM
